Experimental data reported in patent US9737526B2, “Methods for treating Parkinson's disease” (INNOTESTO BVBA, priority 2012, dated 2017).
Values joined by “and” are separate entries in the source; they are usually repeats but may differ in a detail not shown here. Identical values can stand only once. Counter-ions that a name gives are not always drawn. Like-named read-outs stand apart in the source and are kept apart here. Blank lines part the entries; values can stand above or below the compound they belong to.

Assays:
[1] = Solubilities of constituents in non-aqueous solvents; format: physicochemical; details: organic solvent or mixture
Procedure: In a series of experiments, the solubilities of several constituents that may be used in the solution of the present invention were measured: […]

[2] = Stability experiments using ultraperformance liquid chromatography (UPLC); format: physicochemical
Text: In stability experiments using ultraperformance liquid chromatography (UPLC) we confirmed that, in accordance with the scientific literature, apomorphine hydrochloride in aqueous solutions is not stable. It is quickly decomposed on storage.

[3] = water; also printed as 1% w/w; cited from earlier work
[4] = test system: Parkinson's disease subjects; details: cited from earlier work; for time to peak benefit: nine Parkinson's disease subjects
[5] = test system: ciliated respiratory tissue; details: 25% propylene glycol, 15% glycerol, 25% polyethylene glycol 400, 5% povidone in Locke-Ringer solution (WO2005/067893); cited from earlier work
[6] = test system: ciliated respiratory tissue; assay: Effect on ciliary beat frequency (CBF) of ciliated tissue, rinsing with Locke-Ringer solution after 15 minutes; format: cell-based; details: for reversibility of effect on CBF: rinsing with LR after 15 minutes
Procedure: Disclosed are in vitro experiments, according to a previously published method (Merkus et al, 2001), describing the effect of four different solubilizers [25% propylene glycol, 15% glycerol, 25% polyethylene glycol 400 and 5% povidone], dissolved in a Locke-Ringer solution, on the ciliary beat frequency (CBF) of ciliated tissue. […] However, after rinsing with a pure Locke-Ringer solution, the effects on CBF appeared to be completely reversed within 20 minutes.
No ciliary beat frequency could be measured any more. […] Obviously the ciliated cells have been irreversibly damaged by the extreme hyperosmolar concentration of 50% propylene glycol. […] Thus, a nasal formulation containing a drug like apomorphine, dissolved in 50% or more (v/v) propylene glycol, is not a viable option, because it has to be administered in Parkinson's disease on a regular basis, for instance daily or several times per day or per week. On the other hand, such a high concentration of propylene glycol is needed to solubilise sufficient apomorphine (several mg per 0.1 ml) to treat a patient with off-periods in Parkinson's disease.
FIG. 1 is a graph showing the effect of 10% (v/v) propylene glycol (closed circles) or control (open circles) on ciliary beat frequency (CBF) of ciliated respiratory tissue. After 15 minutes contact with 10% (v/v) propylene glycol, tissue is rinsed with pure Locke-Ringer (LR) solution.
FIG. 2 is a graph showing the effect of 25% (v/v) propylene glycol (closed circles) or control (open circles) on ciliary beat frequency (CBF) of ciliated respiratory tissue. After 15 minutes contact with 25% (v/v) propylene glycol, tissue is rinsed with pure Locke-Ringer (LR) solution.
FIG. 3 is a graph showing the effect of 50% (v/v) propylene glycol (closed circles) or control (open circles) on ciliary beat frequency (CBF) of ciliated respiratory tissue. After 15 minutes contact with 50% (v/v) propylene glycol, tissue is rinsed with pure Locke-Ringer (LR) solution.
After 15 minutes contacts with 10% (v/v) propylene glycol, tissue is rinsed with pure Locke-Ringer (LR) solution.
After 15 minute contacts with 25% (v/v) propylene glycol, tissue is rinsed with pure Locke-Ringer (LR) solution.
After 15 minute contacts with 50% (v/v) propylene glycol, tissue is rinsed with pure Locke-Ringer (LR) solution.

[7] = solvent ethanol, read-out: solubility in ethanol
[8] = solvent propylene glycol, read-out: solubility in propylene glycol
[9] = 10% propylene glycol in Locke-Ringer solution, time 0 min
[10] = 10% propylene glycol in Locke-Ringer solution, time 5 min
[11] = 10% propylene glycol in Locke-Ringer solution, time 10 min
[12] = 10% propylene glycol in Locke-Ringer solution, time 15 min
[13] = 10% propylene glycol, time 20 min, after rinsing with LR at 15 min
[14] = 10% propylene glycol, time 30 min, after rinsing with LR at 15 min
[15] = 10% propylene glycol, time 40 min, after rinsing with LR at 15 min
[16] = 10% propylene glycol, time 50 min, after rinsing with LR at 15 min
[17] = 10% propylene glycol, time 60 min, after rinsing with LR at 15 min
[18] = 25% propylene glycol in Locke-Ringer solution, time 0 min
[19] = 25% propylene glycol in Locke-Ringer solution, time 15 min
[20] = 25% propylene glycol, time 20 min, after rinsing with LR at 15 min
[21] = 25% propylene glycol, time 30 min, after rinsing with LR at 15 min
[22] = 25% propylene glycol, time 40 min, after rinsing with LR at 15 min
[23] = 25% propylene glycol, time 50 min, after rinsing with LR at 15 min
[24] = 25% propylene glycol, time 60 min, after rinsing with LR at 15 min
[25] = 50% propylene glycol in Locke-Ringer solution, time 0 min
[26] = 50% propylene glycol in Locke-Ringer solution, time 5 min
[27] = 50% propylene glycol in Locke-Ringer solution, time 10 min
[28] = 50% propylene glycol in Locke-Ringer solution, time 15 min
[29] = 50% propylene glycol, time 20 min, after rinsing with LR at 15 min
[30] = 50% propylene glycol, time 30 min, after rinsing with LR at 15 min
[31] = 50% propylene glycol, time 40 min, after rinsing with LR at 15 min
[32] = 50% propylene glycol, time 50 min, after rinsing with LR at 15 min
[33] = 50% propylene glycol, time 60 min, after rinsing with LR at 15 min

SMILES: CN1CCc2cccc3c2[C@H]1Cc1ccc(O)c(O)c1-3 [apomorphine]
aqueous solubility [3]: about 10 mg/ml | time to peak benefit ([4]; 3 mg apomorphine subcutaneous injection): 21 min | time to peak benefit ([4]; 30 mg apomorphine sublingual tablets): > 40 min | stomatitis on chronic use ([4]; chronic use of the sublingual formulation): severe stomatitis in half the subjects

SMILES: OCC(O)CO [glycerol]
effect on CBF after 15 minutes [5]: strong decrease

Continued, in another order:

solubility ([1]; solvent PEG 400, read-out: solubility in PEG 400): 15 mg/mL | solubility [1, 7]: 20 mg/mL | solubility ([1]; solvent glycerol, read-out: solubility in glycerol): 35 mg/mL | solubility [1, 8]: 80 mg/mL | stability on storage ([2]; aqueous solutions): not stable | stability on storage ([2]; non-aqueous solutions in propylene glycol, compared with aqueous): more stable
SMILES: CN1CCc2cccc3c2[C@H]1Cc1ccc(O)c(O)c1-3 [Apomorphine HCl]

solubility [1, 7]: 20 mg/mL | solubility [1, 8]: 250 mg/mL
SMILES: O=C1NS(=O)(=O)c2ccccc21.[Na] [Saccharin sodium]

reversibility of effect on CBF ([6]; 10% propylene glycol): reversible | reversibility of effect on CBF ([6]; 25% propylene glycol): reversible | cilia activity ([6]; 50% (v/v) propylene glycol, after 5-15 minutes contact): completely arrested | reversibility of effect on CBF ([6]; 50% propylene glycol): not reversible
SMILES: CC(O)CO (stereo not shown) [propylene glycol]
CBF (% of initial value), Mean [6, 9]: 100 % of initial value | CBF (% of initial value), single experiments [6, 9]: 100 % of initial value | CBF (% of initial value), Mean [6, 10]: 54 % of initial value | CBF (% of initial value), single experiments [6, 10]: 46 % of initial value and 58 % of initial value and 56 % of initial value and 51 % of initial value and 60 % of initial value | CBF (% of initial value), Mean [6, 11]: 54 % of initial value | CBF (% of initial value), single experiments [6, 11]: 50 % of initial value and 55 % of initial value and 63 % of initial value and 45 % of initial value | CBF (% of initial value), Mean [6, 12]: 50 % of initial value | CBF (% of initial value), single experiments [6, 12]: 57 % of initial value and 52 % of initial value and 43 % of initial value and 51 % of initial value and 45 % of initial value | CBF (% of initial value), Mean [6, 13]: 98 % of initial value | CBF (% of initial value), single experiments [6, 13]: 91 % of initial value and 92 % of initial value and 118 % of initial value and 110 % of initial value and 76 % of initial value | CBF (% of initial value), Mean [6, 14]: 97 % of initial value | CBF (% of initial value), single experiments [6, 14]: 94 % of initial value and 87 % of initial value and 110 % of initial value and 99 % of initial value and 93 % of initial value | CBF (% of initial value), Mean [6, 15]: 96 % of initial value | CBF (% of initial value), single experiments [6, 15]: 84 % of initial value and 91 % of initial value and 109 % of initial value and 102 % of initial value and 93 % of initial value | CBF (% of initial value), Mean [6, 16]: 95 % of initial value | CBF (% of initial value), single experiments [6, 16]: 82 % of initial value and 103 % of initial value and 106 % of initial value and 99 % of initial value and 86 % of initial value | CBF (% of initial value), Mean [6, 17]: 94 % of initial value | CBF (% of initial value), single experiments [6, 17]: 85 % of initial value and 94 % of initial value and 106 % of initial value and 99 % of initial value and 84 % of initial value | CBF (% of initial value), Mean [6, 18]: 100 % of initial value | CBF (% of initial value), single experiments [6, 18]: 100 % of initial value | CBF (% of initial value), Mean ([6]; 25% propylene glycol in Locke-Ringer solution, time 5 min): 11 % of initial value | CBF (% of initial value), Mean ([6]; 25% propylene glycol in Locke-Ringer solution, time 10 min): 3 % of initial value | CBF (% of initial value), Mean [6, 19]: 0 % of initial value | CBF (% of initial value), single experiments [6, 19]: 0 % of initial value | CBF (% of initial value), Mean [6, 20]: 80 % of initial value | CBF (% of initial value), single experiments [6, 20]: 86 % of initial value and 72 % of initial value and 85 % of initial value and 69 % of initial value and 87 % of initial value | CBF (% of initial value), Mean [6, 21]: 86 % of initial value | CBF (% of initial value), single experiments [6, 21]: 68 % of initial value and 101 % of initial value and 83 % of initial value and 89 % of initial value and 94 % of initial value | CBF (% of initial value), Mean [6, 22]: 97 % of initial value | CBF (% of initial value), single experiments [6, 22]: 97 % of initial value and 103 % of initial value and 99 % of initial value and 89 % of initial value and 94 % of initial value | CBF (% of initial value), Mean [6, 23]: 98 % of initial value | CBF (% of initial value), single experiments [6, 23]: 100 % of initial value and 102 % of initial value and 103 % of initial value and 91 % of initial value and 92 % of initial value | CBF (% of initial value), Mean [6, 24]: 97 % of initial value | CBF (% of initial value), single experiments [6, 24]: 102 % of initial value and 103 % of initial value and 94 % of initial value and 91 % of initial value | CBF (% of initial value), Mean [6, 25]: 100 % of initial value | CBF (% of initial value), single experiments [6, 25]: 100 % of initial value | CBF (% of initial value), Mean [6, 26]: 0 % of initial value | CBF (% of initial value), single experiments [6, 26]: 0 % of initial value | CBF (% of initial value), Mean [6, 27]: 0 % of initial value | CBF (% of initial value), single experiments [6, 27]: 0 % of initial value | CBF (% of initial value), Mean [6, 28]: 0 % of initial value | CBF (% of initial value), single experiments [6, 28]: 0 % of initial value | CBF (% of initial value), Mean [6, 29]: 0 % of initial value | CBF (% of initial value), single experiments [6, 29]: 0 % of initial value | CBF (% of initial value), Mean [6, 30]: 0 % of initial value | CBF (% of initial value), single experiments [6, 30]: 0 % of initial value | CBF (% of initial value), Mean [6, 31]: 0 % of initial value | CBF (% of initial value), single experiments [6, 31]: 0 % of initial value | CBF (% of initial value), Mean [6, 32]: 0 % of initial value | CBF (% of initial value), single experiments [6, 32]: 0 % of initial value | CBF (% of initial value), Mean [6, 33]: 0 % of initial value | CBF (% of initial value), single experiments [6, 33]: 0 % of initial value | effect on CBF after 15 minutes [5]: strong decrease
